Laboratory results published in ChEMBL document CHEMBL4387717, “Structure guided drug design to develop kallikrein 5 inhibitors to treat Netherton syndrome” (Bioorg Med Chem Lett, 2019).
Converted amounts (≈) assume the structure as drawn.

Tests used:
[1] = target: T1, Kallikrein-5 (Homo sapiens, UniProt Q9Y337); assay: Inhibition of recombinant 6His-Q-FLAG tagged human KLK5 expressed in baculovirus infected Sf9 insect cells using (Tos-Gly-Pro-Arg)2[R110].2TFA as substrate measured at 30 secs interval for 5 mins by fluorescence intensity assay; conditions: read-out: pIC50 (converted)
T1 sequence (Q9Y337 whole entry): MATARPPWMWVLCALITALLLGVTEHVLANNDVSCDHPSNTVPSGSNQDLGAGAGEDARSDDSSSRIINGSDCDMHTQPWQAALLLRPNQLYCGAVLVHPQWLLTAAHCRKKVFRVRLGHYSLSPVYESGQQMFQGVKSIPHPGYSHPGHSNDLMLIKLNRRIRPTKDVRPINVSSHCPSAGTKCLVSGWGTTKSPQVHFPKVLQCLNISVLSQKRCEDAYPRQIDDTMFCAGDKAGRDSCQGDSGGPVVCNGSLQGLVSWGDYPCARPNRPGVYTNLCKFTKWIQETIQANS

[2] = target: Kallikrein-1 (Homo sapiens, UniProt P06870); assay: Inhibition of recombinant bovine enterokinase activated N-terminal His-tagged recombinant human KLK1 (19 to 262 residues) expressed in baculovirus infected Sf9 insect cells using 3',6'-bis(prolylphenylalanylarginylamino)3H-spiro(2-benzofuran-1,9'-xanthen)-3-one;TFA as substrate measured at 30 secs interval for 5 mins by fluorescence intensity assay
[3] = Absorption property in methanol assessed as maximum absorption wavelength by UV-spectra analysis; type: physicochemical
[4] = Solubility of the compound in pH 4 Britton-Robinson buffer at 24 hrs; type: physicochemical; conditions: Britton-Robinson buffer, pH 4
[5] = target: Kallikrein-7 (Homo sapiens, UniProt P49862); assay: Inhibition of recombinant C-terminal 10His-tagged human KLK7 (Glu23 to His252 residues) expressed in mouse NS0 cells using 5-FAM-E-A-L-Y-L-V-S-G-C as substrate after 40 mins by fluorescence intensity assay
[6] = target: Prothrombin (Homo sapiens, UniProt P00734); assay: Inhibition of recombinant C-terminal 10His-tagged human thrombin (Met1 to Glu622 residues) expressed in mouse NS0 cells using BOC-VPR-AMC as substrate after 40 mins by fluorescence intensity assay
[7] = species on record: Homo sapiens; assay: (§1) Selectivity index, ratio of compound effect for inhibition of recombinant C-terminal 10-His tagged human KLK7 (Glu23 to His252 residues) expressed in mouse NS0 cells to compound effect for inhibition of recombinant 6His-Q-FLAG tagged human KLK5 expressed in baculovirus infected insect Sf9 cells
[8] = target: T2, Suppressor of tumorigenicity 14 protein (Homo sapiens, UniProt Q9Y5Y6); assay: Inhibition of recombinant human N-terminal met-His6-tagged matriptase catalytic domain (Gly596 to Val855 residues) expressed in Escherichia coli using Boc-QAR-AMC as substrate after 40 mins by fluorescence intensity assay
T2 sequence (Q9Y5Y6 whole entry): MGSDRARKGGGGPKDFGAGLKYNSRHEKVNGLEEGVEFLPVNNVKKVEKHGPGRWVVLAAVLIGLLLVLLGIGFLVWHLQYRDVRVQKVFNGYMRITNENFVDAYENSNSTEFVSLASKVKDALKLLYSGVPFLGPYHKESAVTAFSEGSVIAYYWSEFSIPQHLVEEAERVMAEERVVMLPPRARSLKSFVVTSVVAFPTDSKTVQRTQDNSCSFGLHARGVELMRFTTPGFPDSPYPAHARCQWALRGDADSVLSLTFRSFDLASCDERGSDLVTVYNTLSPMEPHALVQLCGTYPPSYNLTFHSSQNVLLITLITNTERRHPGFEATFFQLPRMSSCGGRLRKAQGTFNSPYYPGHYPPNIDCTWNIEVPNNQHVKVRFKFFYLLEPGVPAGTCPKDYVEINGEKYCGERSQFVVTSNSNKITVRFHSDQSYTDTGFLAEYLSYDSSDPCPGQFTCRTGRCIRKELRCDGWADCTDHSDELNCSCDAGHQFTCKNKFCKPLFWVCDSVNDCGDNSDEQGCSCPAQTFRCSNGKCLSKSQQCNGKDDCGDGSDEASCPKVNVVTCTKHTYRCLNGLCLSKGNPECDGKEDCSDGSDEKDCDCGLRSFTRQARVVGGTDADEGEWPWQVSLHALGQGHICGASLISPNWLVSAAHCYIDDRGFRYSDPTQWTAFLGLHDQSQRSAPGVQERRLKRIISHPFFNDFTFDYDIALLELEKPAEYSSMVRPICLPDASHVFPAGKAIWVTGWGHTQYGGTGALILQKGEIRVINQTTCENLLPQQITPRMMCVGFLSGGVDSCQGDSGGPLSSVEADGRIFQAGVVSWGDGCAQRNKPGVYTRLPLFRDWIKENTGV

[9] = species on record: Homo sapiens; assay: Selectivity index, ratio of compound effect for inhibition of recombinant C-terminal 10-His tagged human urokinase (Met1 to Leu431 residues) expressed in mouse NS0 cells to compound effect for inhibition of recombinant 6His-Q-FLAG tagged human KLK5 expressed in baculovirus infected insect Sf9 cells
[10] = Absorption property in methanol assessed as molar extinction co-efficient by UV-spectra analysis; type: physicochemical
[11] = species on record: Homo sapiens; assay: Selectivity index, ratio of compound effect for inhibition of recombinant C-terminal 10-His tagged human KLK8 (Gln29 to Gly260 residues) expressed in mouse NS0 cells to compound effect for inhibition of recombinant 6His-Q-FLAG tagged human KLK5 expressed in baculovirus infected insect Sf9 cells
[12] = Solubility of the compound in pH 8 Britton-Robinson buffer at 24 hrs; type: physicochemical
[13] = species on record: Homo sapiens; assay: Selectivity index, ratio of compound effect for inhibition of recombinant C-terminal 10-His tagged human KLK14 (Gln19 to Met248 residues) expressed in mouse NS0 cells to compound effect for inhibition of recombinant 6His-Q-FLAG tagged human KLK5 expressed in baculovirus infected insect Sf9 cells
[14] = species on record: Homo sapiens; assay: as §1, with “coagulation factor 10a (Leu24” for “KLK7 (Glu23”, “Lys488” for “His252”, “baculovirus infected insect Sf9” for “mouse NS0”
[15] = Half life in pH 8 buffer at 0.05 mg/ml under H2O2-induced oxidative condition over 24 hrs; type: physicochemical; conditions: buffer with H2O2, pH 8
[16] = target: T3, Kallikrein-14 (Homo sapiens, UniProt Q9P0G3); assay: Inhibition of recombinant C-terminal 10His-tagged human KLK14 (Gln19 to Met248 residues) expressed in mouse NS0 cells using BOC-VPR-AMC as substrate after 40 mins by fluorescence intensity assay
T3 sequence (Q9P0G3 whole entry): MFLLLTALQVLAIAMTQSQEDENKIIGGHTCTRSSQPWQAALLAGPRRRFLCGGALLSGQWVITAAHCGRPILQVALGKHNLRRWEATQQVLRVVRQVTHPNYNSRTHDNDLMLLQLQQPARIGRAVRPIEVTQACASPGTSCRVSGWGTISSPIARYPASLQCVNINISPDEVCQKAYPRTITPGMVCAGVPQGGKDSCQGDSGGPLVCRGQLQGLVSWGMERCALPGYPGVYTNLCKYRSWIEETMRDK

[17] = Solubility of the compound in pH 6 Britton-Robinson buffer at 24 hrs; type: physicochemical; conditions: Britton-Robinson buffer, pH 6

Sequence of Kallikrein-7 (P49862 whole entry): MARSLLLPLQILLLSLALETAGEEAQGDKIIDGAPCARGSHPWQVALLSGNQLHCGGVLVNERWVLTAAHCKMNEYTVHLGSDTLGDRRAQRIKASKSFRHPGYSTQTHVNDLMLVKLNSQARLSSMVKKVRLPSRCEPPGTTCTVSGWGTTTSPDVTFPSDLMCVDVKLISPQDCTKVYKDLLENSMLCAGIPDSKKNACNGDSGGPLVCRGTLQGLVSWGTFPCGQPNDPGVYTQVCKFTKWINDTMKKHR
Sequence of Kallikrein-1 (P06870 whole entry, the tested form may be a part): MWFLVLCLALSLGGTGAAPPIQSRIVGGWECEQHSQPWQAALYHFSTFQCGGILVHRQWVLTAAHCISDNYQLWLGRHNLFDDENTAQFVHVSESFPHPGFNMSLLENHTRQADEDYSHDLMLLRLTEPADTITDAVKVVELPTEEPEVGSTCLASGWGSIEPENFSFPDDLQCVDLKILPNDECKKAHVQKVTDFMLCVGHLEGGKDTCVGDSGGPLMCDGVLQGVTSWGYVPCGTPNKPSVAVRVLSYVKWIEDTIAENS

**Q.** For `N=C(N)c1ccc(NCc2nc(-c3ccccc3)c[nH]2)cc1OCc1cccnc1`, which IC50 [1] is on record?
**A.** 0.0794 µM

**Q.** And the IC50 [2]?
**A.** 63.1 µM

**Q.** What about the Activity [3] of the same compound?
**A.** > 290 nm

**Q.** What about the solubility at 24 h [4] of the same compound?
**A.** 1000 µg/mL (≈ 2510 µM)

**Q.** And the IC50 [5]?
**A.** > 100 µM

**Q.** And the IC50 [6]?
**A.** 63.1 µM

**Q.** And the Selectivity Index [7]?
**A.** > 100

**Q.** And the IC50 [8]?
**A.** 25.1 µM

**Q.** And the Selectivity Index [9]?
**A.** > 100

**Q.** And the Activity [10]?
**A.** > 1000 a.u.L/mol.cm

**Q.** And the Selectivity Index [11]?
**A.** 10

**Q.** What about the solubility at 24 h [12] of the same compound?
**A.** 180 µg/mL (≈ 452 µM)

**Q.** What about the Selectivity Index [13] of the same compound?
**A.** > 100

**Q.** And the Selectivity Index [14]?
**A.** > 100

**Q.** What about the half-life at 0.05 mg/ml [15] of the same compound?
**A.** 10.1 h

**Q.** And the IC50 [16]?
**A.** 3.98 µM

**Q.** What about the solubility at 24 h [17] of the same compound?
**A.** 290 µg/mL (≈ 728 µM)
